# Experimental data from PMC3823413 (Journal of Cellular and Molecular Medicine, 2008).
# Columns and labels:
# [1] = system: fMLP-stimulated H2O2 production in human PMN; experiment: Adenosine inhibition of fMLP-stimulated H2O2 production in human PMN; assay type: cell-based; conditions: for IC50: Homo sapiens
# human PMN [2] = conditions: H2O2 production; PMN incubated with mediator for 6 hrs; mean (± S.E.M.)
# human PMN [3] = experiment: Vitality of human PMN after incubation with inflammatory mediators; assay type: cell-based; conditions: dead cells after 6 hrs incubation with mediator; mean (± S.E.M.)
# [4] = PMN pre-incubated with IFN-γ 6 hrs
# [5] = PMN pre-incubated with IL-1 6 hrs
# [6] = PMN pre-incubated with IL-8 6 hrs
# [7] = PMN pre-incubated with LPS 10 μg/ml 6 hrs
# [8] = PMN pre-incubated with TNF-α 6 hrs
molecule,measurement,setting,value
Nc1ncnc2c1ncn2[C@@H]1O[C@H](CO)[C@@H](O)[C@H]1O [adenosine],IC50,"[1]; 6 h, control (native) PMN, culture medium 6 hrs",75 nM
same,IC50,[1]; [4],123 nM
same,IC50,[1]; [5],40 nM
same,IC50,[1]; [6],43 nM
same,IC50,[1]; [7],332 nM
same,IC50,[1]; [8],106 nM
same,concentration reaching maximum inhibition,[1]; LPS-incubated PMN,10^−5 M
same,increase of the IC50 on the H2O2 production,[1]; LPS-treated (6 hrs) versus native human PMN,4.4 fold
same,Max. inhibition (6 S.E.M.),[1]; [4],86.8 (± 4.3) %
same,Max. inhibition (6 S.E.M.),[1]; [5],78.6 (± 2.5) %
same,Max. inhibition (6 S.E.M.),[1]; [6],76.3 (± 5.8) %
same,Max. inhibition (6 S.E.M.),[1]; [7],75.2 (± 2.5) %
same,Max. inhibition (6 S.E.M.),[1]; [8],84.8 (± 3.6) %
same,Max. inhibition (6 S.E.M.),"[1]; control (native) PMN, culture medium 6 hrs",78.8 (± 1.5) %
same,concentration reaching maximum inhibitory effects,[1]; untreated neutrophils,10^−6 M
IFN-γ: cytokine used for PMN stimulation,Spontaneous activity,human PMN [2],36 (± 2.37) MFI
IL-8: cytokine used for PMN stimulation,Spontaneous activity,human PMN [2],30 (± 1.76) MFI
same,PI-positive PMN,human PMN [3],1.74 (± 0.36) %
TNF-α,Spontaneous activity,human PMN [2],34 (± 1.51) MFI
same,PI-positive PMN,human PMN [3],2.89 (± 0.39) %
"IFN-γ: cytokine used for PMN stimulation (protein, UniProt P01579 24-161, looked up) Interferon gamma: QDPYVKEAENLKKYFNAGHSDVADNGTLFLGILKNWKEESDRKIMQSQIVSFYFKLFKNFKDDQSIQKSVETIKEDMNVKFFNSNKKKRDDFEKLTNYSVTDLNVQRKAIHELIQVMAELSPAAKTGKRKRSQMLFRG",PI-positive PMN,human PMN [3],2.76 (± 0.37) %
